Measurements as given in patent publication US8455469B2, “Use of norgestimate as a selective inhibitor of TRPC3, TRPC6 and TRPC7 ion channels” (Sanofi, priority 2007, dated 2013).

Target: T1, TRPC5 (Homo sapiens, UniProt Q9UL62)
T1 construct: expressed in transfected cells; host or cells: HEK293 FITR (inducible expression)
T1 sequence (Q9UL62 1-973): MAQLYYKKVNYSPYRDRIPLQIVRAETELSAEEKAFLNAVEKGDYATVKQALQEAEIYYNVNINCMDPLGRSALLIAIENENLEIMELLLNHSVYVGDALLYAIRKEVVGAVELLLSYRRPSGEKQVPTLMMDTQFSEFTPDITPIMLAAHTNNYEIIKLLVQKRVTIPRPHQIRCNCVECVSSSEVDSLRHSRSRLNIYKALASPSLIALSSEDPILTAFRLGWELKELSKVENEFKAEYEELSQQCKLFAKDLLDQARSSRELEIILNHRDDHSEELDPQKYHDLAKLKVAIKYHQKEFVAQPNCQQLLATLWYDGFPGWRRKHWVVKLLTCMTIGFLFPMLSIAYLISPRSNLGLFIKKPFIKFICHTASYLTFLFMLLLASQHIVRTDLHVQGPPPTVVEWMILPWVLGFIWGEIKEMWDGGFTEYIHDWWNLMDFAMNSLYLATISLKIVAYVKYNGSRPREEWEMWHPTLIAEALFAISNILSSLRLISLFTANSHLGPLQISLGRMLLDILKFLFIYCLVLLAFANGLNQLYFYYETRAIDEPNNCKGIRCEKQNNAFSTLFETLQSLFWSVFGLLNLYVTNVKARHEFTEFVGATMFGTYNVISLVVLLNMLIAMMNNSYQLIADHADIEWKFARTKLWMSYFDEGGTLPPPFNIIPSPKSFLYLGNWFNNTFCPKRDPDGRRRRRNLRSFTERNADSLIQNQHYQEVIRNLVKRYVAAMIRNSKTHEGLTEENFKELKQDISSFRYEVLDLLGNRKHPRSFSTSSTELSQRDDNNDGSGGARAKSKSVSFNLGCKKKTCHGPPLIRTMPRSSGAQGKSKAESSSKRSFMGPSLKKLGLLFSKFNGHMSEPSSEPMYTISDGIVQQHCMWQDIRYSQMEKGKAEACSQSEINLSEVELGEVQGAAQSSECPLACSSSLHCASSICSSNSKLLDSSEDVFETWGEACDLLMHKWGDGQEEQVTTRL
Experiment: Whole-cell patch clamp, AlF4- activated TRPC5 HEK293 cells
Format: cell-based
Settings: 10 μM, -70 mV, n=20
Experimental: Channels were indirectly excited with the same stimulus for better comparability of the norgestimate effect. Aluminium tetrafluoride (AIF^4−) applied intracellularly via the patch pipette activates G-proteins by mimicking GTP (Sternweis & Gilman, 1982; Bigay et al., 1987).
Since these channels are potentiated by micromolar La^3+ concentrations (Jung et al., 2003), 2-aminoethoxydiphenyl borate (2-APB), a characterized TRPC5 blocker (Xu et al., 2005) was used instead.
Effect of 10 μM norgestimate (NG) on whole-cell currents evoked by AlF4^− infusion into induced TRPC6— (A) and TRPC5 HEK 293 (B) cells. Whole cell currents recorded at −70 mV (left panels) and the corresponding current-voltage (I-V) relationships are shown (right panels). […] The curves were obtained during voltage ramps from −100 to +80 mV. (C) Statistical analysis of the norgestimate effect on TRPC5— and TRPC6-mediated currents.

C#C[C@]1(OC(C)=O)CC[C@H]2[C@@H]3CCC4=C/C(=N/O)CC[C@@H]4[C@H]3CC[C@@]21CC [norgestimate, D-17β-acetoxy-B-ethyl-17α ethinyl-gon-4-en-3-one oxime]
TRPC5 current blocked: 25.9±5.7%
